Source: patent US6670448B2, “Peptide antagonists of zonulin and methods for use of the same” (University of Maryland, Baltimore, priority 1998, dated 2003)
No end group written: not given here.

Tested on: rabbit ileum
Assay: Peptide antagonists FZI/0 and FZI/1 on rabbit ileum in Ussing chambers, alone or before ZOT or zonulin
Format: cell-based
Procedure: Next, Ussing chamber assays were carried out using ileum from 2-3 kg adult male New Zealand white rabbits, which were sacrificed by cervical dislocation. A 20 cm segment of ileum was removed, rinsed free of the intestinal content, opened along the mesenteric border, and stripped of muscular and serosal layers. Eight sheets of mucosa so prepared were then mounted in lucite Ussing chambers (1.12 cm^2 opening), connected to a voltage clamp apparatus (EVC 4000 WPI, Saratosa, Fla.), and bathed with freshly prepared Ringer's solution comprising 53 mM NaCl, 5.0 mM KCl, 30.5 mM mannitol, 1.69 mM Na2HPO4, 0.3 mM NaH2PO4, 1.25 mM CaCl2, 1.1 mM MgCl2, and 25 mM NaHCO3. The bathing solution was maintained at 37° C. with water-jacketed reservoirs connected to a constant-temperature circulating pump and gassed with 95% O2/5% CO2.
100 μl of zonulin purified from rabbit intestine was added to the mucosal side. The potential difference (PD) was measured every 10 min, and the short-circuit current (Isc) and tissue resistance (Rt) were calculated as described by Fasano et al, supra. Because of tissue variability, data were calculated as ΔRt (Rt at time x)−(Rt at time 0).
Next, rabbit ileum mounted in Ussing chambers as described above, were exposed to 100 μg of FZI/0 (SEQ ID NO:15), 100 μg ofFZI/1 (SEQ ID NO:34), 1.0 μg of 6xHis-ZOT (obtained as described in Example 1), 1.0 μg of zonulini (obtained as described in Example 3), or 1.0 μg of zonulinh (obtained as described in Example 3) alone; or pre-exposed for 20 min to 100 μg of FZI/0 or FZI/1, at which time 1.0 μg of 6xHis-ZOT, 1.0 μg of zonulini, or 1.0 μg of zonulinh, was added. ΔRt was then calculated as described above.

Row | Sequence | change in Rt as compared to the negative control, peptide alone (100 μg peptide alone, not significant, FIG. 8 closed bar) [%] | decrease of the effect of ZOT on Rt (pre-treatment 20 min with 100 μg peptide, then 1.0 μg 6xHis-ZOT, FIG. 8) [%] | decrease of the effect of zonulinh on Rt (pre-treatment 20 min with 100 μg peptide, then 1.0 μg zonulinh, FIG. 8) [%] | decrease of the effect of zonulini on Rt (pre-treatment 20 min with 100 μg peptide, then 1.0 μg zonulini, FIG. 8) [%] | inhibitory effect on the action of ZOT, zonulini and zonulinh on Rt (pre-exposure 20 min to 100 μg peptide, FIG. 8 shaded bar)
1 | GGVLVQPG [FZI/0, synthetic octapeptide corresponding to amino acid residues 8-15 of human fetal zonulini] | 0.5 | 75 | 100 | 97 | –
2 | VGVLGRPG [FZI/1, second synthetic peptide with positions 8, 12 and 13 changed to the residues of zonulinb (Val, Gly, Arg)] | – | – | – | – | completely ablated
